How the values were obtained:
[1] = test system: coliforms; assay: Total coliforms (Petrifilm) in raw milk under CO2 pressure (Example 1); assay type: cell-based; settings: 689 kPa CO2 pressure, 4° C.
Experimental: (§1) Milk samples were mixed and 5 ml of milk added into the treatment and control vessels. The treatment vessel was connected to the apparatus and the control vessel closed off. Both vessels were placed in the water bath. When the desired temperatures were attained in both treatment and control vessels, CO2 was introduced through the bottom of the treatment vessel until the set pressure was reached. The CO2 pressure was maintained throughout the test period. When the desired time was reached, the CO2 inlet was turned off, the pressure release valve on the outlet line opened, and the pressure released in under one minute. After depressurization, the treatment and control vessels were removed from the water bath and their external surfaces were wiped dry, sanitized with 95% ethanol, detached from the apparatus and transferred into sterile containers for dilution and plating.
The progression of these counts (total, Coliform/E. coli and thermoduric bacteria) in the treatment and control samples was tracked by conducting checks on the total aerobic counts (SPC) on treatment days 4 and 6. Based on the levels of total counts on days 4 and 6, analyses of total coli forms/E. coli and thermoduric bacteria after day 6 were conducted either in 1-day or 2-day intervals. The control sample final count was measured on days 4 and 6.
Initial total, coliform, and thermoduric counts were each determined for control and treated samples. Thermoduric organisms were enumerated by the laboratory pasteurization count (LPC) method described in the Standard Methods for the Examination of Dairy Products (Houghtby et al., 1992). The 3M Petri film count plate (3M Microbiology Products, St. Paul, Minn.) was used to enumerate total coli forms and Escherichia coli in the raw, treated and control milk samples.

[2] = test system: aerobic bacteria (SPC) in raw milk; assay: Standard Plate Count (SPC) of raw milk held under CO2 pressure, laboratory scale (Example 1); assay type: cell-based; settings: for SPC increase / SPC reduction from initial SPC: 20° C.; for SPC reduction versus control: 1378 kPa
Text: The apparatus for pressurizing and holding raw milk samples is shown in schematic form in FIG. 9 and consisted of two 13-ml stainless steel 1.27-cm OD cylindrical vessels 60, 61; one vessel 60 was pressurized while the other served as a control 61. Compressed and filtered CO2 from a high-pressure tank 62 was used (Empire Airgas, Inc, Elmira, N.Y.). The system consisted of pressure regulator 63, a fine metering valve 64 (NUPRO Company, Willoughby, Ohio), an on-off valve 65 (Circle Seal, Anaheim, Calif.) and a check valve 66 (NUPRO Company, Willoughby, Ohio). The fine metering valve controlled gas flow such that the time to reach desired pressure was less than five seconds. The gas entered the vertically positioned treatment vessel 60 from the bottom and was thus bubbled through the milk until the set pressure was reached. A check valve 66 was placed immediately before the inlet to the pressure vessel to prevent the backward flow of the fluid milk into the gas inlet line. The outlet of the vessels consisted of a pressure gauge 67 and a high-pressure release valve 68 (High Pressure Equipment, Erie, Pa.). The release valve 68 was kept tightly closed during treatment. The control vessel 61 was closed off from both ends but not connected to the carbon dioxide line inlet and outlet lines.
as §1
Short (<1 h) and longer term (1, 4 and 9 day) experiments were conducted. Raw milk (Northeast Dairy Herd Improvement Association, Inc.; Ithaca, N.Y.) in 5 ml aliquots was treated at each of the following combinations of CO2 pressure, temperature, and time (kPa/° C./min): 1378/5/15, 2757/5/5, 3446/5/5. In longer term studies, raw milk from the T&R Center was first stored at 6° C./48 h so that the SPC were at detectable levels at treatment initiation. […]
Raw milk from the T&R Center was monitored for changes in aerobic bacteria, gram-negative bacteria and total Lactobacillus spp. as follows: CO2 pressures of 0 (control), 68, 172, 344, 516 and 689 kPa, at 6.1° C. for 4-days. SPC, gram-negative bacteria and total Lactobacillus spp. were enumerated before (day 0) and after (day 4) treatment. Gram negative bacteria were enumerated on MacConkey Agar (Difco Manual, Becton Dickinson & Co., Sparks, Md.), a selective and differential media which can be used to discriminate between lactose fermenting and non-lactose fermenting gram-negative bacteria. Use of this media allows a one-step method of obtaining estimates of both coliform and non-coliform gram negative bacteria. Coliform bacteria may include species of Escherichia, Klebsiella and Enterobacter, potential pathogens and/or spoilage organisms. Non-coliform gram negative bacteria may include spoilage organisms such as pseudomonads or potential pathogens such as Salmonella spp. or Shigella spp. Numbers of Lactobacillus spp. populations were estimated using acidified (adjusted to pH 5.5 with glacial acetic acid) Lactobacillus MRS agar (Difco Manual, Becton Dickinson & Co., Sparks, Md.) after incubation under anaerobic conditions; suspect colonies were confirmed by gram stain. […]

Q: For `O=C=O` [CO2, carbon dioxide], which “Coliforms counts, Treated, 4 Days” value ([1]; 4 days) is on record?
A: Its value is 1.0 * 10^2h cfu/ml.

Q: And the “Coliforms counts, Treated, 6 Days” value ([1]; 6 days)?
A: Its value is 1.0 * 10^2h cfu/ml.

Q: And the “Coliforms counts, Treated, 8 Days” value ([1]; 8 days)?
A: Its value is 9.3 * 10^1h cfu/ml.

Q: What about the “Coliforms counts, Treated, 9 Days” value ([1]; 9 days) of the same compound?
A: The value was 9.0 * 10^1h cfu/ml.

Q: What about the “microbial growth compared to control milks” value ([2]; 68, 172, 344, 516 and 689 kPa, 6.1° C., 4 days) of the same compound?
A: The value was “significantly reduced microbial growth”.

Q: And the “SPC increase from initial SPC” value ([2]; 68 kPa, 6.1° C., 4 days)?
A: Its value is 1.28 log10 cfu/ml.

Q: And the SPC increase ([2]; 68 kPa, 24 h)?
A: The SPC increase was 1.07 log10 cfu/ml.

Q: And the “SPC increase from initial SPC” value ([2]; 172 kPa, 6.1° C., 4 days)?
A: Its value is 1.10 log10 cfu/ml.

Q: And the SPC increase ([2]; 172 kPa, 24 h)?
A: The SPC increase was 0.59 log10 cfu/ml.

Q: And the “decrease in counts (SPC)” value ([2]; 344 kPa CO2, 24 h, 10° C.)?
A: Its value is 0.31 log10 cfu/ml.

Q: And the “SPC increase from initial SPC” value ([2]; 344 kPa, 6.1° C., 4 days)?
A: Its value is 0.94 log10 cfu/ml.

Q: And the “SPC reduction from initial SPC” value ([2]; 344 kPa, 24 h)?
A: Its value is 0.39 log10.

Q: What about the “decrease in counts (SPC)” value ([2]; 516 kPa CO2, 24 h, 10° C.) of the same compound?
A: The value was 0.56 log10 cfu/ml.

Q: What about the “SPC of treated samples versus initial untreated samples” value ([2]; 516 kPa CO2 pressure, 6.1° C., 4 days) of the same compound?
A: Its value is “not significantly different”.

Q: What about the “SPC increase from initial SPC” value ([2]; 516 kPa, 6.1° C., 4 days) of the same compound?
A: Its value is 0.82 log10 cfu/ml.

Q: And the “SPC reduction from initial SPC” value ([2]; 516 kPa, 24 h)?
A: The value was 0.62 log10.

Q: What about the “time for treated milk to reach SPC of 10^5 cfu/ml” value ([2]; 689 kPa CO2, 4° C.) of the same compound?
A: Its value is 8 days.

Q: And the “decrease in counts (SPC)” value ([2]; 689 kPa CO2, 24 h, 10° C.)?
A: Its value is 0.71 log10 cfu/ml.

Q: And the “SPC counts, Treated, 4 Days” value ([2]; 689 kPa CO2 pressure, 4° C., 4 days, raw milk)?
A: The value was 7.8 * 10^2b cfu/ml.

Q: What about the “SPC counts, Treated, 6 Days” value ([2]; 689 kPa CO2 pressure, 4° C., 6 days, raw milk) of the same compound?
A: The value was 4.4 * 10^4c cfu/ml.

Q: And the “SPC counts, Treated, 8 Days” value ([2]; 689 kPa CO2 pressure, 4° C., 8 days, raw milk)?
A: The value was 9.7 * 10^4d cfu/ml.

Q: And the “SPC counts, Treated, 9 Days” value ([2]; 689 kPa CO2 pressure, 4° C., 9 days, raw milk)?
A: The value was 2.4 * 10^5e cfu/ml.

Q: What about the “extension of treatment holding time compared to control” value ([2]; 689 kPa, 4° C.) of the same compound?
A: The value was “at least four days”.

Q: What about the “treated milk SPC” value ([2]; 689 kPa, 4° C., 6 days) of the same compound?
A: Its value is 4.64 log10 cfu/ml.

Q: What about the “treated milk SPC” value ([2]; 689 kPa, 4° C., 8 days) of the same compound?
A: Its value is 4.99 log10 cfu/ml.

Q: And the “treated milk SPC” value ([2]; 689 kPa, 4° C., 9 days)?
A: The value was 5.37 log10 cfu/ml.

Q: And the “treated milk SPC” value ([2]; 689 kPa, 4° C., four days (from 3.48))?
A: Its value is 2.89 log10 cfu/ml.

Q: And the “SPC lower than initial counts” value ([2]; 689 kPa, 6.1° C., 4 days)?
A: Its value is 0.89 log10 cfu/ml.

Q: What about the “SPC lower than the controls” value ([2]; 689 kPa, 6.1° C., 4 days) of the same compound?
A: The value was 3.48 log10 cfu/ml.

Q: And the “difference in SPC between control and test milks” value ([2]; 689 kPa, 24 h, 10° C.)?
A: The value was 2.68 log10 cfu/ml.

Q: What about the “SPC reduction from initial SPC” value ([2]; 689 kPa, 24 h) of the same compound?
A: Its value is 0.82 log10.

Q: What about the “SPC reduction versus control” value ([2]; 15 min) of the same compound?
A: The value was 0.33 log10.

Q: And the “SPC reduction versus control” value ([2]; 30 min)?
A: The value was 0.39 log10.

Q: And the “SPC of raw milk compared to untreated controls” value ([2]; all time-pressure combinations, even 68 kPa and 20° C.)?
A: Its value is “significantly reduced”.
